Experiments:
glucocorticoid receptor = target: T1, glucocorticoid receptor (Homo sapiens, UniProt P04150); test: Glucocorticoid Receptor Binding Assay ([3H]-dexamethasone, A549 cell extract); settings: [3H]-dexamethasone binding, read-out: GR Ki
T1 construct: containing 50-200 ug of A549 cell extract and 1.86 nM [^3H]-dexamethasone; host or cells: A549 human lung epithelial cells (sonicated cell extract)
T1 sequence (P04150 1-777): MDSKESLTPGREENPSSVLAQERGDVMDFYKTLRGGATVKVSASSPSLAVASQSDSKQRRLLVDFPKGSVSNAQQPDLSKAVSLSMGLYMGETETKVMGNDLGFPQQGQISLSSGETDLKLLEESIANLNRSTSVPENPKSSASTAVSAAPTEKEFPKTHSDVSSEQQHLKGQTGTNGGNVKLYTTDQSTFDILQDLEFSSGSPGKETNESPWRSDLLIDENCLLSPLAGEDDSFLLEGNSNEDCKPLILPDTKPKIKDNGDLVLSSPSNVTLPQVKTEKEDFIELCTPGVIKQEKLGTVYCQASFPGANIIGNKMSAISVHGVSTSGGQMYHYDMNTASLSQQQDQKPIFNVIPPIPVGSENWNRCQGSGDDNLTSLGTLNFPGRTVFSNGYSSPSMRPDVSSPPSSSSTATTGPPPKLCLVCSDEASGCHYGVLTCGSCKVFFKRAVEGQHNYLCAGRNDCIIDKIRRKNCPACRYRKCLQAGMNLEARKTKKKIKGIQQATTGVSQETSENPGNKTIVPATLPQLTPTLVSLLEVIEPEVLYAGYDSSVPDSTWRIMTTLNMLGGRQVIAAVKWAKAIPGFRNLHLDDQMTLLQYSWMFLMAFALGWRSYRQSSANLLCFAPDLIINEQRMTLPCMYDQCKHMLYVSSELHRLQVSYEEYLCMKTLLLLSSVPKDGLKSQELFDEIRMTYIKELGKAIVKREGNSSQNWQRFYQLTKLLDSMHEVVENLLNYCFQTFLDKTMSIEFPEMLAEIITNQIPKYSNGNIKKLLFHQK
How it was run: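 A549 cell extract (50–200 ug) incubated with 1.86 nM [3H]-dexamethasone and test compound for 16 h at 4 °C in Tris-HCl pH 7.2 buffer with glycerol and molybdate. Unbound radioligand removed by dextran-coated charcoal, then supernatant bound counts measured by scintillation.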

human MR = target: T2, human MR (Homo sapiens, UniProt P08235); test: Mineralocorticoid Receptor Binding Assay ([3H]-aldosterone); settings: [3H]-aldosterone binding, human MR expressed in Sf9 cells; read-out: MR Ki
T2 construct: The full length human MR gene is cloned from a human kidney or human brain cDNA library; His tag from the pAcHLT vector (own knowledge); made in house; host or cells: Sf9 insect cells (baculovirus, pAcHLT transfer vector)
T2 sequence (P08235 1-984): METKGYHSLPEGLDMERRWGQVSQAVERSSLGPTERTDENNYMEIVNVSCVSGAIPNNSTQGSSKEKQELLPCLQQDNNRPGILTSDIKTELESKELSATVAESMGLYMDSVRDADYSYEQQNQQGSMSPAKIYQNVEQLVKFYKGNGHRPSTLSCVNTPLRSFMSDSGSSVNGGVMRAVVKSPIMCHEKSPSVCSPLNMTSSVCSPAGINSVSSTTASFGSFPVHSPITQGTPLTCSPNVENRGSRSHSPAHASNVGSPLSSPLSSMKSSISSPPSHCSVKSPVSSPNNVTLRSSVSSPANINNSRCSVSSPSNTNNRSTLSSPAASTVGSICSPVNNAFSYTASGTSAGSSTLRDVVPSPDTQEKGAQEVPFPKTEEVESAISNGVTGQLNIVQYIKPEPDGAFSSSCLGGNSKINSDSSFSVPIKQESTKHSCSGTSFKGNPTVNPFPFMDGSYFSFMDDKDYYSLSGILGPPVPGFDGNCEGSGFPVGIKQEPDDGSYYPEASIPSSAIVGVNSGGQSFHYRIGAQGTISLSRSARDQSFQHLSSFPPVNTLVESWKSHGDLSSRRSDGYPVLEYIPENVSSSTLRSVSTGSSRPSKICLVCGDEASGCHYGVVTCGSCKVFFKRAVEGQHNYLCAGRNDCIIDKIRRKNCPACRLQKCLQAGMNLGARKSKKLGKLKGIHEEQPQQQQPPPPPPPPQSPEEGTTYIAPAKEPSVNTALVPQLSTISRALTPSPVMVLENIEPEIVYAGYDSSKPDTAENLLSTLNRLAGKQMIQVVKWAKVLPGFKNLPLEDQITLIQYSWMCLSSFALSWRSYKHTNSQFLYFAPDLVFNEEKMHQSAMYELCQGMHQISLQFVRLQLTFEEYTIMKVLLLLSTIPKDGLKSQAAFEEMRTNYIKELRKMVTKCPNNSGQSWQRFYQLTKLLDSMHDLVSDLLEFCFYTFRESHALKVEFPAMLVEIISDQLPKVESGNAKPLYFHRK
How it was run: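 Lysate supernatant of Sf9 cells expressing full-length human MR (20-25 μg protein) was incubated with 0.5 nM [3H]-aldosterone and test compound in molybdate/Tris/phosphate/glycerol buffer, pH 7.5, ~16 h at 4 °C. Bound ligand was filtered and counted by scintillation; IC50 is the concentration halving [3H]-aldosterone binding.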

| Compound | Ki (glucocorticoid receptor) [µM] | Ki (human MR) [µM] |
| --- | --- | --- |
| CS(=O)(=O)Nc1cccc(/C=C2/c3ccccc3CCc3cccc(Cl)c32)c1 [Example 366] | < 0.5 | < 0.5 |
| Oc1cccc(/C=C2/c3ccccc3CCc3cccc(Cl)c32)c1 [Example 367] | < 10 | < 0.5 |
| COc1cccc(/C=C2\c3ccccc3CCc3c(O)cccc32)c1 [Example 368] | < 10 | < 0.5 |
| COc1cccc(/C=C2/c3ccccc3CCc3c(O)cccc32)c1 [Example 369] | < 10 | < 0.5 |
| Oc1cccc(/C=C2\c3ccccc3CCc3cccc(Cl)c32)c1 [Example 370] | < 1 | < 0.5 |
| Oc1cccc(/C=C2/c3ccccc3CCc3c(Br)cccc32)c1 [Example 371] | < 0.5 | < 0.5 |
| Oc1cccc(/C=C2\c3ccccc3CCc3c(Br)cccc32)c1 [Example 372] | < 1 | < 0.5 |
| Oc1cccc(C=C2c3ccccc3CCc3c2cccc3C(Br)Br)c1 [Example 373] | < 10 | < 0.5 |
| CS(=O)(=O)Nc1cccc(/C=C2/c3ccccc3CCc3cc(C(F)F)ccc32)c1 [Example 374] | < 0.5 | < 0.5 |
| CS(=O)(=O)Nc1cccc(/C=C2\c3ccccc3CCc3cc(C(F)F)ccc32)c1 [Example 375] | < 0.5 | < 0.5 |
| Oc1cccc(/C=C2\c3ccccc3CCc3c(O)cccc32)c1 [Example 376] | < 0.5 | < 0.5 |
| Oc1cccc(/C=C2/c3ccccc3CCc3c(O)cccc32)c1 [Example 377] | < 10 | < 0.5 |
| O=Cc1cccc2c1CCc1ccccc1/C2=C\c1cccc(O)c1 [Example 378] | < 1 | < 0.5 |
| O=Cc1cccc2c1CCc1ccccc1/C2=C/c1cccc(O)c1 [Example 379] | < 10 | < 0.5 |
| Oc1cccc(/C=C2/c3ccccc3CCc3c2cccc3C(F)F)c1 [Example 380] | < 1 | < 0.5 |
| CS(=O)(=O)Nc1cccc(/C=C2/c3ccccc3CCc3c2cccc3C(F)F)c1 [Example 381] | < 0.5 | < 0.5 |
| CS(=O)(=O)Nc1cccc(/C=C2\c3ccccc3CCc3c2cccc3C(F)F)c1 [Example 382] | < 0.5 | < 0.5 |
| CS(=O)(=O)Nc1cccc(C[C@H]2c3ccccc3CCc3cc(F)ccc32)c1 [Example 383] | < 0.5 | < 0.5 |
| Nc1cccc(C=C2c3ccc(F)cc3CCc3cc(F)ccc32)c1 [Example 384] | < 0.5 | < 0.5 |
| N#CNc1cccc(C=C2c3ccc(F)cc3CCc3cc(F)ccc32)c1 [Example 385] | < 1 | < 0.5 |
| COC(=O)c1ccc2c(c1)CCc1ccccc1/C2=C\c1cccc(NS(C)(=O)=O)c1 [Example 386] | < 0.5 | < 0.5 |
| COC(=O)c1ccc2c(c1)CCc1ccccc1/C2=C/c1cccc(NS(C)(=O)=O)c1 [Example 387] | < 0.5 | < 0.5 |
| CSc1ccc2c(c1)CCc1ccccc1/C2=C\c1cccc(NS(C)(=O)=O)c1 [Example 388] | < 0.5 | < 0.5 |
| CSc1ccc2c(c1)CCc1ccccc1/C2=C/c1cccc(NS(C)(=O)=O)c1 [Example 389] | < 0.5 | < 0.5 |

| Compound | Ki (glucocorticoid receptor) [µM] | Ki (human MR) [µM] |
| --- | --- | --- |
| CS(=O)(=O)Nc1cccc(/C=C2/c3ccccc3CCc3cc(C(F)(F)F)ccc32)c1 [Example 390] | < 0.5 | < 0.5 |
| CS(=O)(=O)Nc1cccc(/C=C2\c3ccccc3CCc3cc(C(F)(F)F)ccc32)c1 [Example 391] | < 0.5 | < 0.5 |
| CS(=O)(=O)Nc1cccc(/C=C2\c3ccccc3CCc3cc(S(C)(=O)=O)ccc32)c1 [Example 392] | < 0.5 | < 0.5 |
| CS(=O)(=O)Nc1cccc(/C=C2/c3ccccc3CCc3cc(S(C)(=O)=O)ccc32)c1 [Example 393] | < 0.5 | < 0.5 |
| Nc1ccc(C=C2c3ccccc3CCc3cc(Cl)ccc32)cc1 [Example 394] | < 0.5 | < 0.5 |
| CS(=O)(=O)Nc1ccc(C=C2c3ccccc3CCc3cc(Cl)ccc32)cc1 [Example 395] | < 10 | < 0.5 |
| COC(=O)Nc1cccc(C=C2c3ccccc3CCc3cc(Cl)ccc32)c1 [Example 396] | < 0.5 | < 0.5 |
| CN(C)C(=O)Nc1cccc(C=C2c3ccccc3CCc3cc(Cl)ccc32)c1 [Example 397] | < 10 | < 0.5 |
| CN(c1cccc(C=C2c3ccccc3CCc3cc(Cl)ccc32)c1)S(C)(=O)=O [Example 398] | < 0.5 | < 0.5 |
| O=S(=O)(Nc1cccc(C=C2c3ccccc3CCc3cc(Cl)ccc32)c1)c1ccccc1 [Example 399] | < 10 | < 0.5 |
| O=C(Nc1cccc(C=C2c3ccccc3CCc3cc(Cl)ccc32)c1)C(F)(F)F [Example 400] | < 0.5 | < 0.5 |
| CS(=O)(=O)Nc1cccc(C=C2c3ccccc3CCc3cc(N)ccc32)c1 [Example 401] | < 0.5 | < 0.5 |
| CN(C)c1ccc2c(c1)CCc1ccccc1C2=Cc1cccc(NS(C)(=O)=O)c1 [Example 402] | < 10 | < 0.5 |
| CS(=O)(=O)Nc1cccc(C=C2c3ccccc3CCc3c(N)cccc32)c1 [Example 403] | < 0.5 | < 0.5 |
| CN(C)c1cccc2c1CCc1ccccc1C2=Cc1cccc(NS(C)(=O)=O)c1 [Example 404] | < 0.5 | < 0.5 |
| CC(=O)Nc1ccc2c(c1)CCc1ccccc1C2=Cc1cccc(NS(C)(=O)=O)c1 [Example 405] | < 0.5 | < 0.5 |
| CC(=O)Nc1cccc2c1CCc1ccccc1C2=Cc1cccc(NS(C)(=O)=O)c1 [Example 406] | < 0.5 | < 0.5 |
| CS(=O)(=O)Nc1cccc(/C=C2\c3ccccc3CCc3cc(N)ccc32)c1 [Example 407] | < 0.5 | < 0.5 |
| CS(=O)(=O)Nc1cccc(/C=C2/c3ccccc3CCc3cc(N)ccc32)c1 [Example 408] | < 0.5 | < 0.5 |
| CS(=O)(=O)Nc1cccc(/C=C2\c3ccccc3CCc3c(N)cccc32)c1 [Example 409] | < 0.5 | < 0.5 |
| CS(=O)(=O)Nc1cccc(/C=C2/c3ccccc3CCc3c(N)cccc32)c1 [Example 410] | < 0.5 | < 0.5 |
| CS(=O)(=O)Nc1cccc(C=C2c3ccccc3CCc3c2cccc3-c2ccccc2)c1 [Example 411] | < 0.5 | < 0.5 |
| CS(=O)(=O)Nc1cccc(C=C2c3ccccc3CCc3cc(-c4ccccc4)ccc32)c1 [Example 412] | < 1 | < 0.5 |
| O=C(Nc1cccc(/C=C2\c3ccccc3CCc3cc(Cl)ccc32)c1)C(F)(F)F [Example 413] | < 0.5 | < 0.5 |
